This note sets out measurements from patent publication US12630530B2, “FGFR inhibitor compound and use thereof” (HENAN MEDINNO PHARMACEUTICAL TECHNOLOGY CO., LTD., priority 2020, dated 2026).

One may read the IC50 as the concentration needed to halve the response being measured.

Type in all cases: biochemical
One assay concerns the target T1, FGFR1 (Homo sapiens, UniProt P11362).
T1 construct: purchased Carna 08-133
Briefly: Assay II: inhibitory activity against wild-type FGFR (HTRF KinEASE-TK). The following applies: Table 2, ATP working concentration 50 μM, substrate TK 1 μM. The protocol:
(§1) Assay II: Determination of inhibitory activity against wild-type FGFR
(§2) 1×Kinase reaction buffer was formulated with 1×volume of 5× kinase reaction buffer and 4×volume of water; 5 mM MgCl2; and 1 mM DTT.
(§3) 3. Formulating 2×FGFR1/FGFR2/FGFR3 with 1× of enzyme reaction buffer.
(§4) 4. Adding 2 μl FGFR1/FGFR2/FGFR3 kinase (formulated in step 3) to each well of the reaction plate.
(§5) 5. Adding 1 μl of the compound diluted in buffer to each well, sealing the plate with a sealing membrane and centrifuging the plate at 1000 g for 30 seconds and leaving it at room temperature for 10 minutes.
(§6) 6. Formulating 2.5×TK-substrate-biotin and ATP mixture with 1× enzyme reaction buffer and adding 2 μl of K-substrate-biotin/ATP mixture to the reaction plate.
(§7) 7. Sealing the plate with a sealing membrane and centrifuging the plate at 1000 g for 30 seconds and allowing it to react at room temperature for 50 minutes.
(§8) 3.3 Calculation of IC50 and plotting of inhibition curves for the compounds.
(§9) The IC50 (half inhibition concentration) of a compound was obtained using the following non-linear fitting equation, wherein data analysis was performed using Graphpad 6.0 software.
(§10) Data were exported from Envision and analyzed manually. The ratios were converted to inhibition rates and IC50 was calculated by Prism GraphPad 6.0 from the inhibition rates. IC50 was calculated again by the ratios to verify accuracy of the results.
(TR-FRET usually uses a lanthanide donor and a delayed reading to cut background.)

In another assay the target is T2, FGFR3 (Homo sapiens, UniProt P22607).
T2 construct: purchased Carna 08-135
The assay is described as above. The following applies: Table 2, ATP working concentration 50 μM, substrate TK 1 μM. On the procedure: as §1, §2, §3, §4, §5, §6, §7, §8, §9, §10

A further assay addresses T3, FGFR2 (Homo sapiens, UniProt P21802).
T3 construct: purchased Carna 08-134
The assay is described as above. The following applies: Table 2, ATP working concentration 50 μM, substrate TK 1 μM. The protocol: as §1, §2, §3, §4, §5, §6, §7, §8, §9, §10

Another assay deals with T4, VEGFR2 (Homo sapiens, UniProt P35968).
T4 construct: purchased Carna 08-191
Put plainly: Assay I: kinase inhibition (HTRF KinEASE-TK), VEGFR2. The following applies: Table 1; ATP working concentration 5 μM, substrate TK 1 μM.

The next assay concerns the target T5, FGFR2 V564F (Homo sapiens, UniProt P21802, V564F).
T5 construct: purchased Signalchem F05-12FG
Put plainly: Assay I: inhibitory activity against FGFR mutants (HTRF KinEASE-TK). The following applies: Table 1; ATP working concentration 10 μM, substrate TK 1 μM. The protocol:
(§11) Assay I: Determination of Inhibitory Activity Against FGFR Mutants
as §2
(§12) 2.3 Screening of Compounds: • 1. […] Adding 1 μl of the compound diluted in buffer to each well, sealing the plate with a sealing membrane and centrifuging the plate at 1000 g for 30 seconds and leaving it at room temperature for 10 minutes. • 6. Formulating 2.5×TK-substrate-biotin and ATP mixture with 1× enzyme reaction buffer and adding 2 μl of K-substrate-biotin/ATP mixture to the reaction plate. • 7. Sealing the plate with a sealing membrane and centrifuging the plate at 1000 g for 30 seconds and allowing it to react at room temperature for 50 minutes. • 8. […] 3. Data Analysis
as §8, §9, §10

For another assay, the target named is T6, FGFR1 V561M (Homo sapiens, UniProt P11362, V561M).
T6 construct: purchased Signalchem F04-13G
The description is as above. To be noted: Table 1; ATP working concentration 5 μM, substrate TK 1 μM. On the procedure:
as §11, §2, §12, §8, §9, §10

Another assay concerns the target T7, FGFR3 V555M (Homo sapiens, UniProt P22607, V555M).
T7 construct: purchased Signalchem F06-12GG
The assay is described as above. To be noted: Table 1; ATP working concentration 20 μM, substrate TK 1 μM. The protocol: as §11, §2
2.3 Screening of Compounds: • 1. Diluting a compound 4-fold in a dilution plate with DMSO, with a starting compound concentration of 2 mM (4 mM for Nentedanib). • 2. Diluting the compound 40-fold into 1× kinase reaction buffer and shaking it on a shaker for 20 minutes. • 3. […] Adding 1 μl of the compound diluted in buffer to each well, sealing the plate with a sealing membrane and centrifuging the plate at 1000 g for 30 seconds and leaving it at room temperature for 10 minutes. • 6. Formulating 2.5×TK-substrate-biotin and ATP mixture with 1× enzyme reaction buffer and adding 2 μl of K-substrate-biotin/ATP mixture to the reaction plate. • 7. Sealing the plate with a sealing membrane and centrifuging the plate at 1000 g for 30 seconds and allowing it to react at room temperature for 50 minutes. • 8. Formulating 4×Sa-XL 665 (250 nM) with HTRF assay buffer. • 9. Adding 5 μl Sa-XL 665 and 5 μl TK-Antibody-Cryptate to each well, centrifuging it at 1000 g for 30 seconds, and allowing it to react for 1 hour at room temperature. • 10. Reading fluorescence signals at 615 nm (Cryptate) and 665 nm (XL665) with Biotek. 3. Data Analysis
3.1 Calculation of the ratio for each well: the ratio was calculated as 665/615 nm.
as §8, §9, §10

T5 sequence (P21802 22-821 V564F): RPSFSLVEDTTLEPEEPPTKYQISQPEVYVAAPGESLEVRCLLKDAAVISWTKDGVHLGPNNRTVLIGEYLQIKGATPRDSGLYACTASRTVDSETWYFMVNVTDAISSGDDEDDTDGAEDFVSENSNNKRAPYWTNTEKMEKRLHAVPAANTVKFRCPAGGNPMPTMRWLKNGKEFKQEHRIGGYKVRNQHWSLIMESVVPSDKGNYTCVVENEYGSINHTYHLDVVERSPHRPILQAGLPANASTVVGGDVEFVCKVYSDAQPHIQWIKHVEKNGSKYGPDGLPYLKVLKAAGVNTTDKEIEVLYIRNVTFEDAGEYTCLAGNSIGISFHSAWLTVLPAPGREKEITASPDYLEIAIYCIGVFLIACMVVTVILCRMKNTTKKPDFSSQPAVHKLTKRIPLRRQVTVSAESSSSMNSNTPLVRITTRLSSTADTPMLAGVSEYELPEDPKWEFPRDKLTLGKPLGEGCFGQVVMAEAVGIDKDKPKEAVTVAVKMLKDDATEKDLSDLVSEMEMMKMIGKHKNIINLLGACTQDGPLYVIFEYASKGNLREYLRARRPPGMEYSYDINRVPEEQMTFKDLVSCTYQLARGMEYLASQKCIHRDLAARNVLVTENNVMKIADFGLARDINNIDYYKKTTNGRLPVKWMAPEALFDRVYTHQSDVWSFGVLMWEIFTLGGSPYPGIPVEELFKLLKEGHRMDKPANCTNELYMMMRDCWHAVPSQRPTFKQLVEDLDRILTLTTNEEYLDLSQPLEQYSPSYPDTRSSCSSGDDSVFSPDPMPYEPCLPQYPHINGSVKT
T7 sequence (P22607 23-806 V555M): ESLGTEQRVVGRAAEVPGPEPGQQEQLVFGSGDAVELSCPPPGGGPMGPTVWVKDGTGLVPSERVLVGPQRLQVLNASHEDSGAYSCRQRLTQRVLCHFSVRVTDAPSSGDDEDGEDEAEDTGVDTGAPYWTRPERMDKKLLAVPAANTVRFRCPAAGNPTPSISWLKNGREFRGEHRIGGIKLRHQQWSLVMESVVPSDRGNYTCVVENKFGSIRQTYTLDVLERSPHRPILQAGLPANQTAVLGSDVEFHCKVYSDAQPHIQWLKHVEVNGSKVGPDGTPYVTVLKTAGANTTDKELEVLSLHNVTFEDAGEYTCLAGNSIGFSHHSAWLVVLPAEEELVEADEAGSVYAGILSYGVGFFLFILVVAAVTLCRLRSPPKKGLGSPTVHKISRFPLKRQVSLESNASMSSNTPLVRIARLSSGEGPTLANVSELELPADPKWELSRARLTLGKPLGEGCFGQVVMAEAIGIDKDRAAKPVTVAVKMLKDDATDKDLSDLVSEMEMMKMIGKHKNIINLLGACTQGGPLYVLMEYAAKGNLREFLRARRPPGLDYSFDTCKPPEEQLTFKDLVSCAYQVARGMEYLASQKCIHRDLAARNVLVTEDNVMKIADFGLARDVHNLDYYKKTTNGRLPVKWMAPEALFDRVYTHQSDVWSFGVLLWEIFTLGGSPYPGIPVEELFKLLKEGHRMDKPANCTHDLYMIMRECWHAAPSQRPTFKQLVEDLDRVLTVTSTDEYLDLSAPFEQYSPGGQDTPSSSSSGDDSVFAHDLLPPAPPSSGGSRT
T2 sequence (P22607 23-806): as the sequence (P22607 23-806 V555M) above, with M533V counted along it
T3 sequence (P21802 22-821): as the sequence (P21802 22-821 V564F) above, with F543V counted along it
T6 sequence (P11362 22-822 V561M): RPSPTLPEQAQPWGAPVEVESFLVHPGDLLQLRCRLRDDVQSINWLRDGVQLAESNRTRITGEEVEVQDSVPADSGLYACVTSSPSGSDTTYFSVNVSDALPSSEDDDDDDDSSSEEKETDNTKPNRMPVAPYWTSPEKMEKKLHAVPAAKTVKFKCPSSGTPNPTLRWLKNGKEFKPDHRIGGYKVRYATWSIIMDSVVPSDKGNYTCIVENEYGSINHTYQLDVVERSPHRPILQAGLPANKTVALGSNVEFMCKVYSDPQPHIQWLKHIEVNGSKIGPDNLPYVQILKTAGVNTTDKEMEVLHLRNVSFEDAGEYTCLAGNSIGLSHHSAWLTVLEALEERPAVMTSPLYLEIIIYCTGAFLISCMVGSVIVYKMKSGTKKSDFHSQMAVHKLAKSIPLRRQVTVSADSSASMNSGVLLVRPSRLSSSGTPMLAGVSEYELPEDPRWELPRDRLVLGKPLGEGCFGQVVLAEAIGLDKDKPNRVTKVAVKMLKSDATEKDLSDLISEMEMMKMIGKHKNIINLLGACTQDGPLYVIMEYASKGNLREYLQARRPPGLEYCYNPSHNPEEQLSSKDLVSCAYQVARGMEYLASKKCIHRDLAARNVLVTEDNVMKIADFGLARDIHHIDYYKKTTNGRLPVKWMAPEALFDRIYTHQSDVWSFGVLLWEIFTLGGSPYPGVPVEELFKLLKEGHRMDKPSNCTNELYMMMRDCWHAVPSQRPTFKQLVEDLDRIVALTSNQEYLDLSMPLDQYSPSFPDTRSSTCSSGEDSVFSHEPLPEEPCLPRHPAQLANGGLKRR
T4 sequence (P35968 20-1356): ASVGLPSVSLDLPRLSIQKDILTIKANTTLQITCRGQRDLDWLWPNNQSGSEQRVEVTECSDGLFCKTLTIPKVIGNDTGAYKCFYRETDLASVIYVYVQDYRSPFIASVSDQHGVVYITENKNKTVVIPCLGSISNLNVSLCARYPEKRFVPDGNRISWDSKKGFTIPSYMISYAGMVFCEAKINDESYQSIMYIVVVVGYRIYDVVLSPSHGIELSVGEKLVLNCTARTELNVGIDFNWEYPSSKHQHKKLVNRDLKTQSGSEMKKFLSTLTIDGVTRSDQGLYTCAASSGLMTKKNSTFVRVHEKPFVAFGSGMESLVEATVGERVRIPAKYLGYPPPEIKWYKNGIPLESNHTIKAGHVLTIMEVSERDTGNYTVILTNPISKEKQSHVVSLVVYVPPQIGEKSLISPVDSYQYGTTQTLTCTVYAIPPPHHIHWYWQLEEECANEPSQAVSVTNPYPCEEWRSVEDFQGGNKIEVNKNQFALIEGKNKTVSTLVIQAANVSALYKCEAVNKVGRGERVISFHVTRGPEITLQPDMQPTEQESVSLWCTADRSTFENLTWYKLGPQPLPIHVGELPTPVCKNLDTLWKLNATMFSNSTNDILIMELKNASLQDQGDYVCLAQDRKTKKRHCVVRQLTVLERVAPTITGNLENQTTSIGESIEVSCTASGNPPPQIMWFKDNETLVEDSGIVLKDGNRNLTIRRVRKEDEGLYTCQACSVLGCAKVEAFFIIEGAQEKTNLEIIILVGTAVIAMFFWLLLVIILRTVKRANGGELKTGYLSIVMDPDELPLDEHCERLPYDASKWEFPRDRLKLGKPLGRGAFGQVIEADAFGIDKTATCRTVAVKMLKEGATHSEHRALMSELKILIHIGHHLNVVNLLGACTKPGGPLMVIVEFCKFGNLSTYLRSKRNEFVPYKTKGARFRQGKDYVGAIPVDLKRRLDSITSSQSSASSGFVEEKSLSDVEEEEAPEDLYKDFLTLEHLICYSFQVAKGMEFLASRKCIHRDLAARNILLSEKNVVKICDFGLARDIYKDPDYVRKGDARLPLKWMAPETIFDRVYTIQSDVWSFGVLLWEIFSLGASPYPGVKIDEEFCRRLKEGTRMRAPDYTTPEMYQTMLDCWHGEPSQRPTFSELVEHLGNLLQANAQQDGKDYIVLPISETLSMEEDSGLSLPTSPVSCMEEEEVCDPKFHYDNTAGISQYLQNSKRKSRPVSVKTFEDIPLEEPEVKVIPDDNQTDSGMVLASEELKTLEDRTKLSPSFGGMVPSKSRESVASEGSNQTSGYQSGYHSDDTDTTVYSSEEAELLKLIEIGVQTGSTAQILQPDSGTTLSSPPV
T1 sequence (P11362 22-822): as the sequence (P11362 22-822 V561M) above, with M540V counted along it

Take `C[C@@H](Oc1ccc2[nH]nc(C(=O)Nc3cnn(CCO)c3)c2c1)c1c(Cl)cncc1Cl` [Compound 7, (R)-5-(1-(3,5-dichloropyridin-4-yl)ethoxy)-N-(1-(2-hydroxyethyl)-1H-pyrazol-4-yl)-1H-indazole-3-carboxamide]: the IC50 at FGFR1 stood at 27.5 nM; on FGFR3, 42.6 nM; against FGFR2, 7.6 nM; on VEGFR2, 97.6 nM; on FGFR2 V564F it was 0.42 nM; against FGFR1 V561M it was 5.2 nM. Also, the IC50 against FGFR3 V555M was determined as 0.73 nM.

For the compound `CC(Oc1ccc2[nH]nc(C(=O)Nc3ccc(N4CCC(O)CC4)cc3)c2c1)c1c(Cl)cncc1Cl` (stereo not drawn) [Compound 13, 5-(1-(3,5-dichloropyridin-4-yl)ethoxy)-N-(4-(4-hydroxypiperidin-1-yl)phenyl)-1H-indazole-3-carboxamide], the IC50 against VEGFR2 is more than 10000 nM; against FGFR2 V564F, 8.9 nM; against FGFR1 V561M, 6.8 nM; against FGFR3 V555M, 5.9 nM.

As for `CC(Oc1ccc2[nH]nc(C(=O)Nc3cnn(C4CN(C)C4)c3)c2c1)c1c(Cl)cncc1Cl` (stereo not drawn) [Compound 21, 5-(1-(3,5-dichloropyridin-4-yl)ethoxy)-N-(1-(1-methylazetidin-3-yl)-1H-pyrazol-4-yl)-1H-indazole-3-carboxamide], the IC50 at VEGFR2 amounted to 39.4 nM; at FGFR2 V564F it was 0.09 nM; at FGFR1 V561M it was 0.27 nM; at FGFR3 V555M it was 0.15 nM.

As to `CC(Oc1ccc2[nH]nc(C(=O)Nc3cnn(CCN4CCOCC4)c3)c2c1)c1c(Cl)cncc1Cl` (stereo not drawn) [Compound 19, 5-(1-(3,5-dichloropyridin-4-yl)ethoxy)-N-(1-(2-morpholinoethyl)-1H-pyrazol-4-yl)-1H-indazole-3-carboxamide], the IC50 amounted to 63.4 nM against VEGFR2, 0.24 nM against FGFR2 V564F, 0.35 nM against FGFR1 V561M and 0.27 nM at FGFR3 V555M.

Take `CCn1cc(NC(=O)c2n[nH]c3ccc(OC(C)c4c(Cl)cncc4Cl)cc23)cn1` (stereo not drawn) [Compound 20, 5-(1-(3,5-dichloropyridin-4-yl)ethoxy)-N-(1-ethyl-1H-pyrazol-4-yl)-1H-indazole-3-carboxamide]: the IC50 against VEGFR2 is 327 nM; at FGFR2 V564F it was 0.82 nM; on FGFR1 V561M it was 9.1 nM; against FGFR3 V555M, 0.88 nM.

For `CCN1CCC(c2ccc(NC(=O)c3n[nH]c4ccc(OC(C)c5c(Cl)cncc5Cl)cc34)cc2)CC1` (stereo not drawn) [Compound 18, 5-(1-(3,5-dichloropyridin-4-yl)ethoxy)-N-(4-(1-ethylpiperidin-4-yl)phenyl)-1H-indazole-3-carboxamide], the IC50 came out at 141 nM at VEGFR2, 0.63 nM against FGFR2 V564F, 1.6 nM against FGFR1 V561M and 1.1 nM against FGFR3 V555M.

As to `CC(Oc1ccc2[nH]nc(C(=O)Nc3cnn(C4CC(O)C4)c3)c2c1)c1c(Cl)cncc1Cl` (stereo not drawn) [Compound 12, 5-(1-(3,5-dichloropyridin-4-yl)ethoxy)-N-(1-(3-hydroxycyclobutyl)-1H-pyrazol-4-yl)-1H-indazole-3-carboxamide], the IC50 is 45.1 nM at FGFR1; 42.9 nM at FGFR3; 24.5 nM at FGFR2; 208 nM at VEGFR2; 0.48 nM against FGFR2 V564F; 1.9 nM at FGFR1 V561M. This compound had an IC50 at FGFR3 V555M of 0.74 nM.

In the case of `CC(Oc1ccc2[nH]nc(C(=O)Nc3ccc(N4CCN(C)CC4)cc3)c2c1)c1c(Cl)cncc1Cl` (stereo not drawn) [Compound 9, 5-(1-(3,5-dichloropyridin-4-yl)ethoxy)-N-(4-(4-methylpiperazin-1-yl)phenyl)-1H-indazole-3-carboxamide], the half-inhibitory concentration (IC50) came out at 61 nM against FGFR1; 102 nM against FGFR3; 48.7 nM at FGFR2; 152 nM at VEGFR2; 0.94 nM against FGFR2 V564F; 1 nM on FGFR1 V561M. Moreover, the IC50 at FGFR3 V555M was found to be 1.1 nM.

As to `CC(Oc1ccc2[nH]nc(C(=O)Nc3ccc(N4C[C@@H](C)N[C@@H](C)C4)nc3)c2c1)c1c(Cl)cncc1Cl` (stereo partly drawn) [Compound 8, 5-(1-(3,5-dichloropyridin-4-yl)ethoxy)-N-(6-((3S, 5R)-3,5-dimethylpiperazin-1-yl)pyridin-3-yl)-1H-indazole-3-carboxamide], the IC50 at FGFR1 was found to be 69.7 nM; against FGFR3 it was 106 nM; at FGFR2 it was 58.6 nM; at VEGFR2, 224 nM; on FGFR2 V564F it was 4 nM; on FGFR1 V561M, 2.3 nM. The IC50 at FGFR3 V555M was 2.6 nM.

In the case of `CC(Oc1ccc2[nH]nc(C(=O)Nc3ccc(N4C[C@@H](C)N[C@@H](C)C4)cn3)c2c1)c1c(Cl)cncc1Cl` (stereo partly drawn) [Compound 16, 5-(1-(3,5-dichloropyridin-4-yl)ethoxy)-N-(5-((3S, 5R)-3,5-dimethylpiperazin-1-yl)pyridin-2-yl)-1H-indazole-3-carboxamide], the IC50 is 1210 nM on VEGFR2, 34.1 nM against FGFR2 V564F, 22.8 nM on FGFR1 V561M and 41.7 nM against FGFR3 V555M.

Consider `CC(Oc1ccc2[nH]nc(C(=O)Nc3ccc(N4C[C@@H](C)N[C@@H](C)C4)c(F)c3)c2c1)c1c(Cl)cncc1Cl` (stereo partly drawn) [Compound 17, 5-(1-(3,5-dichloropyridin-4-yl)ethoxy)-N-(4-((3S, 5R)-3,5-dimethylpiperazin-1-yl)-3-fluorophenyl)-1H-indazole-3-carboxamide], for which the IC50 on VEGFR2 stood at 173 nM; at FGFR2 V564F it was 2.3 nM; against FGFR1 V561M it was 8.6 nM; against FGFR3 V555M it was 6.9 nM.

Take `CC(Oc1ccc2[nH]nc(C(=O)Nc3cnn(CC4CCN(C)CC4)c3)c2c1)c1c(Cl)cncc1Cl` (stereo not drawn) [Compound 22]: the IC50 at VEGFR2 was found to be 179 nM; at FGFR2 V564F, 0.6 nM; against FGFR1 V561M it was 0.91 nM; against FGFR3 V555M, 0.79 nM.

As for `CC(Oc1ccc2[nH]nc(C(=O)Nc3cnn(C4CCN(C)CC4)c3)c2c1)c1c(Cl)cncc1Cl` (stereo not drawn) [Compound 14, 5-(1-(3,5-dichloropyridin-4-yl)ethoxy)-N-(1-(1-methylpiperidin-4-yl)-1H-pyrazol-4-yl)-1H-indazole-3-carboxamide], the IC50 on FGFR1 was determined as 11.1 nM; at FGFR3, 19.2 nM; at FGFR2 it was 9.5 nM; against VEGFR2 it was 24.7 nM; at FGFR2 V564F, 0.14 nM; against FGFR1 V561M, 0.47 nM. At FGFR3 V555M, this compound yielded an IC50 of 0.27 nM.

With `CC(Oc1ccc2[nH]nc(C(=O)Nc3cnn(CCC4(O)CC4)c3)c2c1)c1c(Cl)cncc1Cl` (stereo not drawn) [Compound 15, 5-(1-(3,5-dichloropyridin-4-yl)ethoxy)-N-(1-(2-(1-hydroxycyclopropyl)ethyl)-1H-pyrazol-4-yl)-1H-indazole-3-carboxamide], the IC50 against VEGFR2 was found to be 66.2 nM; at FGFR2 V564F, 0.84 nM; on FGFR1 V561M, 2.2 nM; at FGFR3 V555M it was 2.1 nM.

Take `C[C@@H]1CN(c2ccc(NC(=O)c3n[nH]c4ccc(O[C@H](C)c5c(Cl)cncc5Cl)cc34)cc2)C[C@H](C)N1` [Compound 6, 5-((R)-1-(3,5-dichloropyridin-4-yl)ethoxy)-N-(4-((3S,5R)-3,5-dimethylpiperazin-1-yl)phenyl)-1H-indazole-3-carboxamide]: the IC50 came to 27.7 nM against FGFR1; 52.2 nM on FGFR3; 21.3 nM against FGFR2; 84.1 nM against VEGFR2; 0.66 nM against FGFR2 V564F; 2.3 nM on FGFR1 V561M. At FGFR3 V555M, this compound registered an IC50 of 0.94 nM.
